Species: Rattus norvegicus
Assay: Open TG-GATES - Regimen: Daily Repeat
Type: toxicity, organism-based, Sprague-Dawley
Set-up: regimen Daily Repeat, gender Male, age 6 weeks
Conditions: in vivo, po, route gavage; for APTT / Bas / Eos / Fbg / Hb / Ht / Lym / MCH / MCHC / MCV / Mono / Neu / PT / Plat / RBC / Ret / WBC: tissue Blood; for KIDNEY_L / KIDNEY_R / KIDNEY_TOTAL: tissue Kidney; for LIVER: tissue Liver; for A/G / ALP / ALT / AST / BUN / CRE / Ca / Cl / DBIL / GLC / IP / K / LDH / Na / PL / RALB / TBIL / TC / TG / TP / gamma-GTP: tissue Plasma
[1] = 100 mg/kg, 72 h, dose level Middle, time 3 day
[2] = 100 mg/kg, […], dose level Middle, time 7 day
[3] = 100 mg/kg, […], dose level Middle, time 14 day
[4] = 100 mg/kg, […], dose level Middle, time 28 day
[5] = 300 mg/kg, 72 h, dose level High, time 3 day
[6] = 300 mg/kg, […], dose level High, time 7 day
[7] = 300 mg/kg, […], dose level High, time 14 day
[8] = 300 mg/kg, […], dose level High, time 28 day

CC(=O)Nc1ccc2c(c1)Cc1ccccc1-2 [2-ACETYLAMINOFLUORENE]
TERMINAL_BW [1]: 202.9 g
APTT [1]: 20.1 s
Bas [1]: 0.8%
Eos [1]: 0.8%
Fbg [1]: 260.6 mg/dL
Hb [1]: 15.7 g/dL
Ht [1]: 45.1%
Lym [1]: 72.4%
MCH [1]: 21.9 pg
MCHC [1]: 34.9%
MCV [1]: 62.7 fL
Mono [1]: 2.8%
Neu [1]: 22.4%
PT [1]: 12.7 s
Plat [1]: 133.7 x10_4/uL
RBC [1]: 718.2 x10_4/ul
Ret [1]: 3.6%
WBC [1]: 85 x10_2/uL
KIDNEY_L [1]: 1 g
KIDNEY_R [1]: 0.9 g
KIDNEY_TOTAL [1]: 1.9 g
LIVER [1]: 8.8 g
A/G [1]: 1.4
ALP [1]: 615.4 IU/L
ALT [1]: 24 IU/L
AST [1]: 70.8 IU/L
BUN [1]: 11.4 mg/dL
CRE [1]: 0.4 mg/dL
Ca [1]: 10.1 mg/dL
Cl [1]: 104.4 meq/L
DBIL [1]: 0.076 mg/dL
GLC [1]: 191 mg/dL
IP [1]: 8.2 mg/dL
K [1]: 4.3 meq/L
LDH [1]: 220.8 IU/L
Na [1]: 141.6 meq/L
PL [1]: 86.2 mg/dL
RALB [1]: 2.9 g/dL
TBIL [1]: 0.1 mg/dL
TC [1]: 45.4 mg/dL
TG [1]: 47.6 mg/dL
TP [1]: 5 g/dL
gamma-GTP [1]: 1.2 IU/L
TERMINAL_BW [2]: 214.1 g
TERMINAL_BW [3]: 247.1 g
TERMINAL_BW [4]: 286 g
APTT [2]: 20.2 s
Bas [2]: 0.8%
Eos [2]: 0.6%
Fbg [2]: 167.8 mg/dL
Hb [2]: 14.7 g/dL
Ht [2]: 41.6%
Lym [2]: 83%
MCH [2]: 20.5 pg
MCHC [2]: 35.3%
MCV [2]: 58.1 fL
Mono [2]: 2.8%
Neu [2]: 12.2%
PT [2]: 13.8 s
Plat [2]: 174.6 x10_4/uL
RBC [2]: 715.8 x10_4/ul
Ret [2]: 1.2%
WBC [2]: 106.3 x10_2/uL
APTT [3]: 18.3 s
Bas [3]: 0.8%
Eos [3]: 0%
Fbg [3]: 106.8 mg/dL
Hb [3]: 13.1 g/dL
Ht [3]: 38.5%
Lym [3]: 74.6%
MCH [3]: 19.7 pg
MCHC [3]: 34.1%
MCV [3]: 57.7 fL
Mono [3]: 3%
Neu [3]: 21%
PT [3]: 15.2 s
Plat [3]: 144.4 x10_4/uL
RBC [3]: 667 x10_4/ul
Ret [3]: 6.3%
WBC [3]: 169.9 x10_2/uL
APTT [4]: 22.1 s
Bas [4]: 0.2%
Eos [4]: 0%
Fbg [4]: 74.4 mg/dL
Hb [4]: 13.6 g/dL
Ht [4]: 40.8%
Lym [4]: 61.6%
MCH [4]: 20.5 pg
MCHC [4]: 33.4%
MCV [4]: 61.3 fL
Mono [4]: 2.8%
Neu [4]: 34.2%
PT [4]: 18.8 s
Plat [4]: 149.9 x10_4/uL
RBC [4]: 667.6 x10_4/ul
Ret [4]: 6.6%
WBC [4]: 220.7 x10_2/uL
KIDNEY_L [2]: 1 g
KIDNEY_R [2]: 0.9 g
KIDNEY_TOTAL [2]: 1.9 g
KIDNEY_L [3]: 1.1 g
KIDNEY_R [3]: 1.1 g
KIDNEY_TOTAL [3]: 2.2 g
KIDNEY_L [4]: 1.3 g
KIDNEY_R [4]: 1.3 g
KIDNEY_TOTAL [4]: 2.5 g
LIVER [2]: 9.2 g
LIVER [3]: 10.6 g
LIVER [4]: 11.7 g
A/G [2]: 1.5
ALP [2]: 822.2 IU/L
ALT [2]: 33.8 IU/L
AST [2]: 83.4 IU/L
BUN [2]: 11.4 mg/dL
CRE [2]: 0.4 mg/dL
Ca [2]: 9.8 mg/dL
Cl [2]: 105.4 meq/L
DBIL [2]: 0.098 mg/dL
GLC [2]: 170.6 mg/dL
IP [2]: 6 mg/dL
K [2]: 4.1 meq/L
LDH [2]: 274.8 IU/L
Na [2]: 139.8 meq/L
PL [2]: 93 mg/dL
RALB [2]: 2.6 g/dL
TBIL [2]: 0.2 mg/dL
TC [2]: 37.6 mg/dL
TG [2]: 75.2 mg/dL
TP [2]: 4.4 g/dL
gamma-GTP [2]: 1 IU/L
A/G [3]: 1.3
ALP [3]: 791.2 IU/L
ALT [3]: 41 IU/L
AST [3]: 83.6 IU/L
BUN [3]: 13.6 mg/dL
CRE [3]: 0.5 mg/dL
Ca [3]: 9.6 mg/dL
Cl [3]: 103.4 meq/L
DBIL [3]: 0.6 mg/dL
GLC [3]: 157 mg/dL
IP [3]: 7.8 mg/dL
K [3]: 4.1 meq/L
LDH [3]: 206 IU/L
Na [3]: 141 meq/L
PL [3]: 104.8 mg/dL
RALB [3]: 2.3 g/dL
TBIL [3]: 0.7 mg/dL
TC [3]: 43.4 mg/dL
TG [3]: 64.6 mg/dL
TP [3]: 4.1 g/dL
gamma-GTP [3]: 2 IU/L
A/G [4]: 1.1
ALP [4]: 1005.4 IU/L
ALT [4]: 58.8 IU/L
AST [4]: 126.6 IU/L
BUN [4]: 12.4 mg/dL
CRE [4]: 0.4 mg/dL
Ca [4]: 8.9 mg/dL
Cl [4]: 104.6 meq/L
DBIL [4]: 1.2 mg/dL
GLC [4]: 146 mg/dL
IP [4]: 6.7 mg/dL
K [4]: 3.9 meq/L
LDH [4]: 264.4 IU/L
Na [4]: 141 meq/L
PL [4]: 128.8 mg/dL
RALB [4]: 2 g/dL
TBIL [4]: 1.6 mg/dL
TC [4]: 55.4 mg/dL
TG [4]: 76.2 mg/dL
TP [4]: 3.9 g/dL
gamma-GTP [4]: 9.6 IU/L
TERMINAL_BW [5]: 193.8 g
APTT [5]: 20.9 s
Bas [5]: 0.8%
Eos [5]: 0.8%
Fbg [5]: 229.4 mg/dL
Hb [5]: 15.2 g/dL
Ht [5]: 43.9%
Lym [5]: 71.4%
MCH [5]: 21.2 pg
MCHC [5]: 34.6%
MCV [5]: 61.2 fL
Mono [5]: 3%
Neu [5]: 23.2%
PT [5]: 12.8 s
Plat [5]: 140.3 x10_4/uL
RBC [5]: 716.4 x10_4/ul
Ret [5]: 2.9%
WBC [5]: 127.6 x10_2/uL
KIDNEY_L [5]: 0.9 g
KIDNEY_R [5]: 0.9 g
KIDNEY_TOTAL [5]: 1.9 g
LIVER [5]: 9.4 g
A/G [5]: 1.5
ALP [5]: 595 IU/L
ALT [5]: 24 IU/L
AST [5]: 72.2 IU/L
BUN [5]: 10.2 mg/dL
CRE [5]: 0.4 mg/dL
Ca [5]: 9.9 mg/dL
Cl [5]: 105.8 meq/L
DBIL [5]: 0.096 mg/dL
GLC [5]: 193.6 mg/dL
IP [5]: 7.4 mg/dL
K [5]: 4.3 meq/L
LDH [5]: 281.2 IU/L
Na [5]: 142.4 meq/L
PL [5]: 93.2 mg/dL
RALB [5]: 2.9 g/dL
TBIL [5]: 0.2 mg/dL
TC [5]: 49.2 mg/dL
TG [5]: 52.2 mg/dL
TP [5]: 5 g/dL
gamma-GTP [5]: 1.2 IU/L
TERMINAL_BW [6]: 219.8 g
TERMINAL_BW [7]: 246.4 g
TERMINAL_BW [8]: 274 g
APTT [6]: 19.8 s
Bas [6]: 0.6%
Eos [6]: 1%
Fbg [6]: 207 mg/dL
Hb [6]: 12.9 g/dL
Ht [6]: 36%
Lym [6]: 68.2%
MCH [6]: 21.4 pg
MCHC [6]: 35.9%
MCV [6]: 59.5 fL
Mono [6]: 3%
Neu [6]: 26.4%
PT [6]: 12.4 s
Plat [6]: 184.8 x10_4/uL
RBC [6]: 605.6 x10_4/ul
Ret [6]: 4.7%
WBC [6]: 186.5 x10_2/uL
APTT [7]: 21.6 s
Bas [7]: 0.6%
Eos [7]: 0%
Fbg [7]: 169.6 mg/dL
Hb [7]: 13.2 g/dL
Ht [7]: 40.3%
Lym [7]: 73.2%
MCH [7]: 22.8 pg
MCHC [7]: 32.7%
MCV [7]: 70 fL
Mono [7]: 2.6%
Neu [7]: 23%
PT [7]: 13.5 s
Plat [7]: 163 x10_4/uL
RBC [7]: 576.8 x10_4/ul
Ret [7]: 14.7%
WBC [7]: 142.6 x10_2/uL
APTT [8]: 23 s
Bas [8]: 0%
Eos [8]: 0.4%
Fbg [8]: 142 mg/dL
Hb [8]: 13.2 g/dL
Ht [8]: 39.8%
Lym [8]: 67.6%
MCH [8]: 20.9 pg
MCHC [8]: 33.1%
MCV [8]: 63.1 fL
Mono [8]: 2.6%
Neu [8]: 27.8%
PT [8]: 13.3 s
Plat [8]: 134.9 x10_4/uL
RBC [8]: 632.8 x10_4/ul
Ret [8]: 10.2%
WBC [8]: 131.2 x10_2/uL
KIDNEY_L [6]: 1 g
KIDNEY_R [6]: 1 g
KIDNEY_TOTAL [6]: 2 g
KIDNEY_L [7]: 1.1 g
KIDNEY_R [7]: 1 g
KIDNEY_TOTAL [7]: 2.1 g
KIDNEY_L [8]: 1.2 g
KIDNEY_R [8]: 1.2 g
KIDNEY_TOTAL [8]: 2.3 g
LIVER [6]: 11.5 g
LIVER [7]: 13.3 g
LIVER [8]: 13.2 g
A/G [6]: 1.5
ALP [6]: 616.8 IU/L
ALT [6]: 32 IU/L
AST [6]: 75.8 IU/L
BUN [6]: 13 mg/dL
CRE [6]: 0.5 mg/dL
Ca [6]: 10.4 mg/dL
Cl [6]: 102.8 meq/L
DBIL [6]: 0.1 mg/dL
GLC [6]: 165.8 mg/dL
IP [6]: 6.5 mg/dL
K [6]: 4 meq/L
LDH [6]: 224.2 IU/L
Na [6]: 138.4 meq/L
PL [6]: 113.2 mg/dL
RALB [6]: 2.8 g/dL
TBIL [6]: 0.2 mg/dL
TC [6]: 51.6 mg/dL
TG [6]: 115 mg/dL
TP [6]: 4.7 g/dL
gamma-GTP [6]: 1 IU/L
A/G [7]: 1.5
ALP [7]: 611.4 IU/L
ALT [7]: 39.8 IU/L
AST [7]: 70.4 IU/L
BUN [7]: 13.2 mg/dL
CRE [7]: 0.5 mg/dL
Ca [7]: 9.9 mg/dL
Cl [7]: 104.8 meq/L
DBIL [7]: 0.2 mg/dL
GLC [7]: 160.6 mg/dL
IP [7]: 6.8 mg/dL
K [7]: 4.3 meq/L
LDH [7]: 190 IU/L
Na [7]: 141 meq/L
PL [7]: 135.4 mg/dL
RALB [7]: 2.9 g/dL
TBIL [7]: 0.3 mg/dL
TC [7]: 54.8 mg/dL
TG [7]: 154.4 mg/dL
TP [7]: 4.8 g/dL
gamma-GTP [7]: 1.2 IU/L
A/G [8]: 1.3
ALP [8]: 649.6 IU/L
ALT [8]: 42.4 IU/L
AST [8]: 72.6 IU/L
BUN [8]: 14 mg/dL
CRE [8]: 0.5 mg/dL
Ca [8]: 9.8 mg/dL
Cl [8]: 104.8 meq/L
DBIL [8]: 0.3 mg/dL
GLC [8]: 162.2 mg/dL
IP [8]: 6.6 mg/dL
K [8]: 3.7 meq/L
LDH [8]: 169.8 IU/L
Na [8]: 140.4 meq/L
PL [8]: 145.6 mg/dL
RALB [8]: 2.7 g/dL
TBIL [8]: 0.4 mg/dL
TC [8]: 59.4 mg/dL
TG [8]: 134.8 mg/dL
TP [8]: 4.8 g/dL
gamma-GTP [8]: 4.8 IU/L

— ChEMBL document CHEMBL3885861, “Open TG-GATES”
